Reference: the OligoGym collection
After the bases stand the sugars from the 5' end (letter, count) and the backbone: PS all phosphorothioate, else s phosphorothioate and o phosphodiester by linkage. Methylation of C is not given here. e = 2'-O-(2-methoxyethyl) (MOE); k = constrained ethyl (cEt); d = 2'-deoxy (DNA); m = 2'-O-methyl

Target: HSD17B13
Settings: ASO, HepaRG

Row | Sequence | target mRNA inhibition (1 µM) [%] | also measured
1 | TATCAGACTTCTTACG (sugars k3 d1 m1 d8 k3, PS) | 27 | –
2 | TATCAGACTTCTTACG (sugars k3 d9 k3 e1, PS) | 28 | –
3 | TATCAGACTTCTTACG (sugars k3 d10 k3, PS) | 59 | –
4 | TATCAGACTTCTTACG (sugars kkdddddddddkekek, PS) | 32 | –
5 | TATGGTAAGCCCCATG (sugars k3 d10 k3, PS) | 30 | –
6 | TATGTAATAGGCAGTA (sugars k3 d10 k3, PS) | 62 | –
7 | TATGTCCAGGTTGAGA (sugars k3 d10 k3, PS) | 64 | –
8 | TATGTGAAGAGCTGGT (sugars k3 d10 k3, PS) | 63 | –
9 | TATGTGATTGAGTTCT (sugars k3 d9 k3 e1, PS) | 43 | –
10 | TATGTGATTGAGTTCT (sugars k3 d10 k3, PS) | 28 | –
11 | TATGUGATTGAGTTCT (sugars k3 d1 m1 d8 k3, PS) | 21 | –
12 | TATTAAGACAGTTGAG (sugars k3 d10 k3, PS) | 44 | –
13 | TATTAATATGACTTGC (sugars k3 d10 k3, PS) | 25 | –
14 | TATTAGTTGGCCTGCC (sugars k3 d10 k3, PS) | 14 | –
15 | TATTATCAGGACTGAA (sugars k3 d10 k3, PS) | 63 | –
16 | TATTATGCACTCTATA (sugars k3 d10 k3, PS) | 9 | –
17 | TATTCACCACGATTGT (sugars k3 d10 k3, PS) | 2 | –
18 | TATTGGTAAGTATTCC (sugars k3 d9 k3 e1, PS) | 48 | –
19 | TATTGGTAAGTATTCC (sugars k3 d10 k3, PS) | 67 | –
20 | TATTTAGGGCAAACCT (sugars k3 d10 k3, PS) | 40 | –
21 | TATTTCTTGCGAGAAA (sugars k3 d10 k3, PS) | 30 | –
22 | TCAAAATGGTGGCGAG (sugars k3 d10 k3, PS) | 31 | –
23 | TCAAAGTCAGTATCCC (sugars k3 d10 k3, PS) | 79 | target mRNA inhibition (0.02 µM): 5%; target mRNA inhibition (0.078 µM): 19%; target mRNA inhibition (0.313 µM): 48%; target mRNA inhibition (1.25 µM): 75%; target mRNA inhibition (5 µM): 88%
24 | TCACCTGATTTAGAGA (sugars k3 d10 k3, PS) | 13 | –
25 | TCACCTTTCATAATGT (sugars k3 d9 k3 e1, PS) | 41 | –

Row | Sequence | target mRNA inhibition (1 µM) [%] | also measured
26 | TCATAAAAATCGCTGC (sugars k3 d10 k3, PS) | 26 | –
27 | TCATAAACATAGGCTT (sugars k3 d10 k3, PS) | 58 | –
28 | TCATAGTGGACTTCAT (sugars kkdddddddddkekek, PS) | 48 | –
29 | TCATTAGGAAAAGTGT (sugars k3 d10 k3, PS) | 16 | –
30 | TCATTCGAATTTCTTC (sugars k3 d10 k3, PS) | 76 | target mRNA inhibition (0.02 µM): 16%; target mRNA inhibition (0.078 µM): 31%; target mRNA inhibition (0.313 µM): 54%; target mRNA inhibition (1.25 µM): 79%; target mRNA inhibition (5 µM): 90%
31 | TCCAAAGATGAGAGTC (sugars k3 d10 k3, PS) | 17 | –
32 | TCCAAGTAATTACTTC (sugars k3 d10 k3, PS) | 72 | target mRNA inhibition (0.02 µM): 0%; target mRNA inhibition (0.078 µM): 3%; target mRNA inhibition (0.313 µM): 23%; target mRNA inhibition (1.25 µM): 43%; target mRNA inhibition (5 µM): 67%
33 | TCCACACCGCGCTTAT (sugars k3 d10 k3, PS) | 32 | –
34 | TCCAGGTTGAGATAAA (sugars k3 d10 k3, PS) | 70 | –
35 | TCCATAATAATAGCTC (sugars k3 d9 k3 e1, PS) | 66 | –
36 | TCCATCATCGATGGAA (sugars k3 d10 k3, PS) | 31 | –
37 | TCCATTATCCTTACTC (sugars k3 d10 k3, PS) | 15 | –
38 | TCCCTGTGTAAATAAG (sugars k3 d10 k3, PS) | 35 | –
39 | TCCGTTATAAGTTTCA (sugars k3 d10 k3, PS) | 65 | –
40 | TCCTAGGGAGGAGGTA (sugars k3 d10 k3, PS) | 33 | –
41 | TCCTTGTGTAGTCCTA (sugars k3 d10 k3, PS) | 61 | –
42 | TCGAAACTATTCATAT (sugars k3 d10 k3, PS) | 64 | –
43 | TCGAATCATTAAGCTT (sugars k3 d10 k3, PS) | 34 | –
44 | TCGATGGAAGAAGTGC (sugars k3 d10 k3, PS) | 34 | –
45 | TCGCCTAAAGGAGATC (sugars k3 d10 k3, PS) | 70 | –
46 | TCTAAAGCAGGCTACT (sugars k3 d10 k3, PS) | 32 | –
47 | TCTAAAGGGCTGCTCT (sugars k3 d10 k3, PS) | 33 | –
48 | TCTAAATTACTCCGTT (sugars k3 d10 k3, PS) | 15 | –
49 | TCTAAATTATTGCCTG (sugars k3 d10 k3, PS) | 43 | –
50 | TCTATTATGCACTCTA (sugars k3 d10 k3, PS) | 55 | –

Row | Sequence | target mRNA inhibition (1 µM) [%] | also measured
51 | TCTCTTGACAATGGTT (sugars kkdddddddddkekek, PS) | 70 | target mRNA inhibition (0.02 µM): 15%; target mRNA inhibition (0.078 µM): 25%; target mRNA inhibition (0.313 µM): 43%; target mRNA inhibition (1.25 µM): 71%; target mRNA inhibition (5 µM): 70%
52 | TCTCUTAGCTGTGCAC (sugars k3 d1 m1 d8 k3, PS) | 49 | –
53 | TCTGATGTCAGACCTC (sugars k3 d10 k3, PS) | 42 | –
54 | TCTGATTACAGCATCA (sugars k3 d10 k3, PS) | 48 | –
55 | TCTGGGACCAAGGATA (sugars k3 d1 m1 d8 k3, PS) | 31 | –
56 | TCTGGGACCAAGGATA (sugars kkdddddddddkekek, PS) | 56 | –
57 | TCTGTGGCATGGCTAC (sugars k3 d10 k3, PS) | 67 | –
58 | TCTTAAACCTTCCCTG (sugars k3 d9 k3 e1, PS) | 38 | –
59 | TCTTAAGATACCCAGG (sugars k3 d1 m1 d8 k3, PS) | 51 | –
60 | TCTTAAGATACCCAGG (sugars kkdddddddddkekek, PS) | 35 | –
61 | TCTTAATTACATTCCC (sugars k3 d10 k3, PS) | 64 | –
62 | TCTTACATGATTAAGC (sugars k3 d10 k3, PS) | 35 | –
63 | TCTTACGACTTCATCT (sugars k3 d10 k3, PS) | 34 | –
64 | TCTTAGCTGTGCACTC (sugars kkdddddddddkekek, PS) | 50 | –
65 | TCTTATGTAATAGCCA (sugars k3 d1 m1 d8 k3, PS) | 64 | –
66 | TCTTATGTAATAGCCA (sugars k3 d9 k3 e1, PS) | 76 | target mRNA inhibition (0.02 µM): 15%; target mRNA inhibition (0.078 µM): 18%; target mRNA inhibition (0.313 µM): 25%; target mRNA inhibition (1.25 µM): 65%; target mRNA inhibition (5 µM): 84%
67 | TCTTATGTAATAGCCA (sugars kkdddddddddkekek, PS) | 65 | –
68 | TCTTCATCCTTGGTGC (sugars k3 d10 k3, PS) | 48 | –
69 | TCTTGACAATGGTTGA (sugars k3 d1 m1 d8 k3, PS) | 56 | –
70 | TCTTGATGTAGTGGGA (sugars k3 d10 k3, PS) | 44 | –
71 | TCTTTAGTCAACAGTA (sugars k3 d10 k3, PS) | 68 | –
72 | TGAACAGTCTTAAACC (sugars k3 d10 k3, PS) | 56 | –
73 | TGAACTGAAACGATCC (sugars k3 d10 k3, PS) | 58 | –
74 | TGAAGTTAGTATAGTT (sugars k3 d1 m1 d8 k3, PS) | 62 | –
75 | TGAATGTAAAGGCTGG (sugars k3 d10 k3, PS) | 38 | –

Row | Sequence | target mRNA inhibition (1 µM) [%] | also measured
76 | TGACAATGGTTGATAG (sugars kkdddddddddkekek, PS) | 37 | –
77 | TGAGAACAATCTCCCC (sugars k3 d10 k3, PS) | 69 | target mRNA inhibition (0.02 µM): 12%; target mRNA inhibition (0.078 µM): 30%; target mRNA inhibition (0.313 µM): 57%; target mRNA inhibition (1.25 µM): 84%; target mRNA inhibition (5 µM): 90%
78 | TGAGATTACCCCTGGC (sugars k3 d10 k3, PS) | 53 | –
79 | TGAGCCTAAAATTGTC (sugars k3 d10 k3, PS) | 30 | –
80 | TGAGCTAGACAATTGC (sugars k3 d10 k3, PS) | 78 | –
81 | TGAGTAGTGTAAGCTG (sugars k3 d10 k3, PS) | 62 | –
82 | TGATATGTCAATACTC (sugars k3 d10 k1 d1 k1, PS) | 57 | –
83 | TGATATTCTGTGGCAT (sugars k3 d1 m1 d8 k3, PS) | 61 | –
84 | TGATATTCTGTGGCAT (sugars kkdddddddddkekek, PS) | 46 | –
85 | TGATTTAGAGAGCGAT (sugars k3 d10 k3, PS) | 35 | –
86 | TGATTTTGACCTTACC (sugars k3 d10 k3, PS) | 11 | –
87 | TGATUGAGTTCTCCAC (sugars k3 d1 m1 d8 k3, PS) | 4 | –
88 | TGCAACTTTTAGTCAG (sugars k3 d10 k3, PS) | 41 | –
89 | TGCAATGAGATTACCC (sugars k3 d10 k3, PS) | 54 | –
90 | TGCACCGTTTTGGGCT (sugars k3 d1 m1 d8 k3, PS) | 55 | –
91 | TGCACCGTTTTGGGCT (sugars k3 d9 k3 e1, PS) | 43 | –
92 | TGCACCGTTTTGGGCT (sugars k3 d10 k3, PS) | 36 | –
93 | TGCACCGTTTTGGGCT (sugars kkdddddddddkekek, PS) | 29 | –
94 | TGCAGCATTGATTCGA (sugars k3 d9 k3 e1, PS) | 52 | –
95 | TGCATAAGAGCCAAAC (sugars k3 d10 k3, PS) | 56 | –
96 | TGCCAAACCAATGTTT (sugars k3 d1 m1 d8 k3, PS) | 35 | –
97 | TGCCAAACCAATGTTT (sugars k3 d9 k3 e1, PS) | 43 | –
98 | TGCCAAGCTTTGTGTC (sugars k3 d10 k3, PS) | 38 | –
99 | TGCCCCGAATTATTTC (sugars k3 d10 k3, PS) | 3 | –
